Usually melting point stands for the temperature of the solid-liquid transition.

Where a name gives a salt, the structure may show the parent alone.

Compound `CNCc1ccc(C(F)(F)F)cc1Oc1ccc(Cl)c(Cl)c1` showed a melting point of 164 to 166 °C.
Next, `CNCc1ccc(Cl)cc1Oc1ccc(Cl)c(Cl)c1`: 132 to 133 °C.
In the case of `CNC(C)c1cc(F)ccc1Oc1ccc(Cl)c(Cl)c1` (stereo not shown) it was 127 °C.
In the case of `CC(=O)Nc1ccc(Oc2ccc(Cl)c(Cl)c2)c(CN(C)C)c1.Cl` it was 199 to 202 °C; in that of `Cl.Fc1ccc(Oc2ccc(Cl)c(Cl)c2)c(C2CCCN2)c1` (stereo not shown), 171 to 173 °C.
`CN(C)Cc1cc(C(F)(F)F)ccc1Oc1ccc(Cl)c(Cl)c1.O=C(O)/C=C\C(=O)O` showed a melting point of 127 to 128 °C.
In the case of `CNCc1cc(F)ccc1Oc1ccc(Cl)cc1` (as salt: HCl) it was 208 to 209 °C; in that of `CC(c1ccccc1Oc1ccc(Cl)c(Cl)c1)N(C)C` (stereo not shown) (as salt: HCl), 130 to 133 °C; in that of `CNC(C)c1ccccc1Oc1ccc(Cl)cc1` (stereo not shown) (as salt: HCl), 147 to 149 °C.
In the case of `CNCc1cc(OC)c(OC)cc1Oc1ccc(Cl)c(Cl)c1` (as salt: HCl) it was 143 to 145 °C; in that of `CNCc1cc(Br)ccc1Oc1ccc(Cl)c(Cl)c1` (as salt: HCl), 206 to 210 °C; in that of `CNCc1ccc(Br)cc1Oc1ccc(Cl)c(Cl)c1` (as salt: HCl), 185 to 189 °C.
In the case of `Cc1ccc(Oc2ccc(Cl)c(Cl)c2)c(CN(C)C)c1` (as salt: HCl) it was 196 to 198 °C; in that of `CNCc1cc(OC)ccc1Oc1ccc(Cl)c(Cl)c1` (as salt: HCl) (hydrate or solvate), 140 to 141 °C.
`CN(C)Cc1cc(F)ccc1Oc1ccc(Cl)c(Cl)c1` (as salt: HCl) [Example 13, [2-(3,4-Dichlorophenoxy)-5-fluorobenzyl]-dimethylamine] displayed a melting point of 174 to 175 °C.
`NCc1cc(F)ccc1Oc1ccc(Cl)c(Cl)c1` (as salt: hydrochloride) [Example 57, 2-(3,4-DICHLOROPHENOXY)-5-FLUORO-BENZYLAMINE] returned a melting point of 190 to 194 °C.

The record behind these values is patent US7084165B2, “Monoamine reuptake inhibitors for treatment of CNS disorders” (Pfizer Inc, priority 1999, dated 2006).
